Experimental data reported in patent publication US20140363841A1, “INDUCED PLURIPOTENT STEM CELL (IPSC)-DERIVED CARDIOMYOCYTE-LIKE CELLS AND USES THEREOF” (priority 2012, published 2014).
“And” between values parts separate entries of the source, which are not always exact repeats. Identical values can stand only once. Like-named read-outs stand apart in the source and are kept apart here.

How the values were obtained:
hiPSC-CMs [1] = details: for modulation of beating rates (in words): beta-blocker applied alone; for effect on isoprenaline-induced increase in beating frequencies (in words): clusters initially treated with isoprenaline
Text: (§1) To characterize the electrophysiological properties of the hiPSC-CMs, a multielectrode array (MEA) recording system (Multichannel Systems, Reutlingen, Germany) was used. The contracting areas were microdissected and plated on gelatin coated MEA plates. The MEA system allows simultaneous recordings from 60 titanium nitride electrodes (30 μm) at high spatial (200 μm) and temporal (15 kHz) resolutions. To assess the effects of different drugs on the electrophysiological properties, the stock drugs in DMSO were diluted in medium (2 mL). All drugs utilized in the study were purchased from Sigma, USA. Extracellular recording were performed for 180-300 seconds at baseline and at 5 minutes after drug application. The local activation maps were generated using Cardio2D software (Multichannel Systems, Reutlingen, Germany). The recorded electrograms were also used to determine the local field potential (FP) duration (FPD).
The different agents were also evaluated to determine if these agents (drugs) could induce arrhythmia in hiPSC-CMs at supraphysiological ranges.

[2] = test system: hiPSC-CMs (human induced pluripotent stem cell-derived cardiomyocyte-like cells, lines C2 and C3); test: Multielectrode array (MEA) field potential recording: cFPD and FPmin; format: cell-based; details: for FPmin (normalized values): baseline 100±0; for change in FPmin (in words) / changes in cFPD (in words): drug alone; for changes in cFPD (in words): CMs from both cell lines; for cFPD (normalized) after reversal of isoprenaline-reduced cFPD: beta-blocker applied after isoprenaline (0.1 μM); for cFPD effect relative to human ETPC unbound range (in words): non-linear regression of normalized cFPD, dose range 10^−9-10^−4 M
Protocol: Human iPSC lines [MSnviPSNF2 (C2), MSnviPSNF3 (C3)] were maintained on 1% matrigel (BD Biosciences, CA, USA) and grown in chemically defined mTeSR1 medium (Stem Cell Technologies, VA, Canada). Care was taken to manually remove the differentiated areas (<10%) with the help of a scraper before passaging. Cells were washed with DMEM-F12 (Invitrogen, USA) and incubated with 1 mg/ml dispase (Sigma, USA) for 5-7 minutes. Cells were then washed with DMEM-F12 and colonies scrapped from the culture dishes. Controlled tituration of the colonies was performed to get small clumps of approximately 50-70 μm in size for replating on new matrigel coated dishes (1:6 split ratio).
Subsequently, EBs were plated on 0.1% gelatin coated dishes in EB medium without SB203580. […] Beating areas were manually cut after day 21 of differentiation and utilized for various experiments.
as §1
Comparisons at each time point were conducted using analysis of variance (ANOVA), and all data are presented as mean values±s.e.m of three independent experiments. Differences were considered statistically significant at p≦0.05. Corrected field potential duration curves were fitted using the one phase decay algorithm from GraphPad Prism software.

hiPSC-CMs [3] = test: MEA conduction velocity; format: cell-based, human
Text: as §1

[4] = test system: contracting EBs (iPSC-derived cardiomyocyte-like cells); test: Beat rate variability analysis in beta-adrenergic response (power spectral density of RR intervals); format: cell-based, human; details: 0.1 μM isoprenaline, then 1 μM beta-blocker where stated
Text: To study the autonomic modulations of beating period of the contracting EBs, power spectral density of beat-to-beat or RR intervals based on 5-min recordings from the MEA were used to derive the Total Power (TP), very low frequency power (VLF), low frequency power (LF), high frequency power (HF), LF (normalized unit), HF (normalized unit) and ratio of LF/HF of spectral of beat rate variability using software such as HRV Toolkit (physionet.org/tutorials/hrv-toolkit/, Harvard Medical School) or LabVIEW Biomedical Toolkit for heart rate variability. […] The data were obtained using iPSC-derived cardiomyocyte-like cells from an individual with genetic pre-disposition to cardiac arrhythmia (n=4; referring to 4 regional areas within an EB), and iPSC-derived cardiomyocyte-like cells from a normal individual without genetic pre-disposition to cardiac arrhythmia (n=10).

[5] = human, unbound therapeutic plasma concentration; cited from earlier work
[6] = EBs from individual with genetic disposition to arrhythmia (n=4)
[7] = EBs from normal healthy donor (n=10)
[8] = over all three tested doses (range 0.01-10 μM)

## CCCCc1oc2ccccc2c1C(=O)c1cc(I)c(OCCN(CC)CC)c(I)c1 [amiodarone, Amiodarone]
hiPSC-CMs [1]; higher doses, 10-100 μM
  effect on beating frequencies (in words): increased beating frequencies
[2]; 1 μM
  cFPD prolongation: 37%
[2]; 1 μM, C2 derived CM, baseline 0.26±0.009 s, n=3
  cFPD: 0.36 ± 0.01 s
[2]; 1 μM, C2 derived CMs
  FPmin shortening: 25%
[2]; 1 μM, C2 derived CMs, n=3
  FPmin (normalized values): 73.6±3.8
[2]; 1 μM, C3 derived CMs, n=3, ns
  FPmin (normalized values): 90±2.7
[2]; 1 μM, C3 derived CMs, ns
  FPmin reduction: 10%

## O=C(NCC1CCCCN1)c1cc(OCC(F)(F)F)ccc1OCC(F)(F)F (centres unmarked) [flecainide, Flecainide]
hiPSC-CMs [3]; 1 μM
  reduction of conduction velocity: 45%
hiPSC-CMs [3]; lowest dose, 0.01 μM
  reduction of conduction velocity (in words): did not show any significant reduction
hiPSC-CMs [1]; 10 μM
  increase in beating frequencies: 2 fold
[2]; 1 μM
  increase in cFPDs: 1.7 fold
[2]; 1 μM, C2 derived CMs, baseline 0.32±0.04 s, n=3
  cFPD: 0.55 ± 0.06 s
[2]
  change in FPmin (in words): did not show any significant change

## CC(C)NCC(O)c1ccc(O)c(O)c1 (centres unmarked) [isoprenaline]
hiPSC-CMs [1]; clusters treated with the beta-adrenergic agonist
  effect on beating frequencies (in words): significant increase in beating frequencies
[4]; [6]
  HF (normalized unit): 38.864±16.674%
  LF (normalized unit): 61.136±16.674%
  LF/HF ratio: 1.897±1.052
  Total Power (TP) of beat rate variability: 0.464±0.047 ms^2
  high frequency power (HF): 0.064±0.095 ms^2
  low frequency power (LF): 0.058±0.043 ms^2
  very low frequency power (VLF): 0.341±0.167 ms^2
[4]; [7]
  HF (normalized unit): 25.494±2.381%
  LF (normalized unit): 74.505±2.380%
  LF/HF ratio: 2.949±0.326
  Total Power (TP) of beat rate variability: 0.645±0.001 ms^2
  high frequency power (HF): 0.017±0.002 ms^2
  low frequency power (LF): 0.050±0.001 ms^2
  very low frequency power (VLF): 0.578±0.002 ms^2
[2]; 0.1 μM
  cFPD reduction: 20%
[2]; 0.1 μM isoprenaline, baseline 100±0.0%, n=3
  cFPD (normalized): 81.2±2.4% and 79.6±3.4%

## CCN(CC)CC(=O)Nc1c(C)cccc1C [lidocaine, Lidocaine]
hiPSC-CMs [3]; [8]
  reduction of conduction velocity: 40%
[2]
  changes in cFPD (in words): did not demonstrate any significant changes
[2]; maximal effects at 10 μM dosage
  effect on FPmin, dose-dependent treatment (in words): FPmin shortening

## CC(C)(C)NCC(O)COc1cccc2c1CC(O)C(O)C2 (centres unmarked) [nadolol, Nadolol]
[5]
  ETPC unbound range: 0.18 to 0.80 µM
hiPSC-CMs [1]
  modulation of beating rates (in words): not apparent
  effect on isoprenaline-induced increase in beating frequencies (in words): reversed
[2]; n=3
  cFPD (normalized) after reversal of isoprenaline-reduced cFPD: 92.3±1.5%
[2]
  change in FPmin (in words): did not have any significant effects
  changes in cFPD (in words): did not have any significant effects
  cFPD effect relative to human ETPC unbound range (in words): no significant cFPD prolongation within the ETPC unbound range

## CC(C)NCC(O)COc1cccc2ccccc12 (centres unmarked) [propranolol, Propranolol]
hiPSC-CMs [1]
  modulation of beating rates (in words): not apparent
  effect on isoprenaline-induced increase in beating frequencies (in words): reversed
hiPSC-CMs [1]; higher doses, 10-100 μM
  effect on beating frequencies (in words): did not show any major effect
[2]; n=3
  cFPD (normalized) after reversal of isoprenaline-reduced cFPD: 98.3±4.5%
[2]
  change in FPmin (in words): did not have any significant effects
  changes in cFPD (in words): did not have any significant effects

## C=C[C@H]1C[N@@]2CC[C@H]1C[C@@H]2[C@@H](O)c1ccnc2ccc(OC)cc12 [quinidine, Quinidine]
hiPSC-CMs [3]; [8]
  reduction of conduction velocity: 20-25%
hiPSC-CMs [1]; 100 μM
  increase in beating frequencies: 3 fold
hiPSC-CMs [1]; 100 μM, baseline 0.66±0.06 Hz, n=3
  beating frequency (BF): 1.84±0.08 Hz
[2]; 10 μM, C2 cell line derived CMs
  FPmin shortening: 55%
[2]; 10 μM, C2 cell line derived CMs, baseline 100, n=3
  FPmin (normalized): 45±3.5%
[2]; 10 μM, C2 line derived CMs, baseline 0.31±0.03 s, n=3
  cFPD: 0.50 ± 0.05 s
[2]; 10 μM, C3 cell line derived CMs
  maximum FPmin shortening: 37%
[2]; 10 μM, CMs derived from C2 line
  cFPD prolongation: 62%
[2]; 10 μM, hiPSC-CMs (FIG. 1A, C)
  cFPD prolongation: 55%

## CC(C)NCC(O)c1ccc(NS(C)(=O)=O)cc1 (centres unmarked) [sotalol, Sotalol]
[5]
  ETPC unbound range: 1.8 to 14 µM
hiPSC-CMs [1]; 500 μM
  increase in beating frequencies: 1.8 fold
[2]; 50 μM
  cFPD prolongation: 65%
[2]
  change in FPmin (in words): did not show any significant change
  cFPD effect relative to human ETPC unbound range (in words): maximally observed within the human ETPC range

## COc1ccc(CCN(C)CCCC(C#N)(c2ccc(OC)c(OC)c2)C(C)C)cc1OC (centres unmarked) [verapamil, Verapamil]
hiPSC-CMs [1]
  effect on beating frequencies (in words): significantly reduced beating frequencies
hiPSC-CMs [1]; 5 μM
  effect of prolonged exposure (in words): beating arrest
